Source: patent US20070128217A1 (priority 2003, published 2007)

What was measured:
[1] = test system: antibodies in sera from SARS patients (sera 1a, 1b, 2, 6, 37, 62, London, SARS-yellow, SARS-green); type: binding, human; set-up: Binding of serum 6 to linear peptides of protein X1 of SARS-CoV Urbani / Binding of serum 37 to linear peptides of protein X1 of SARS-CoV Urbani / Binding of serum 6 to looped/cyclic peptide (PEPSCAN-ELISA) / Binding of serum 37 to looped/cyclic peptide (PEPSCAN-ELISA) / Binding of serum 37 to looped/cyclic peptides of protein X1 of SARS-CoV Urbani / Binding of serum 6 to linear peptides of protein X2 / Binding of serum 37 to linear peptides of protein X2 / Binding of serum 37 to looped/cyclic peptides of protein X2 of SARS-CoV Urbani / Binding of serum 6 to linear peptides of protein M of SARS-CoV Urbani / Binding of serum 37 to linear peptides of protein M of SARS-CoV Urbani / Binding of serum 6 to looped/cyclic peptides of protein M of SARS-CoV Urbani / Binding of serum 37 to looped/cyclic peptides of protein M of SARS-CoV Urbani / Binding of serum 6 to linear peptides of protein X3 of SARS-CoV Urbani / Binding of serum 37 to linear peptides of protein X3 of SARS-CoV Urbani / Binding of serum 37 to looped/cyclic peptides of protein X3 of SARS-CoV Urbani / Binding of serum 6 to linear peptides of protein X4 of SARS-CoV Urbani / Binding of serum 37 to linear peptides of protein X4 of SARS-CoV Urbani / Binding of serum 37 to looped/cyclic peptides of protein X4 of SARS-CoV Urbani / Binding of serum 6 to linear peptides of protein X5 of SARS-CoV Urbani / Binding of serum 37 to linear peptides of protein X5 of SARS-CoV Urbani / Binding of serum 37 to looped/cyclic peptides of protein X5 of SARS-CoV Urbani / Binding of serum 6 to linear peptides of protein N of SARS-CoV Urbani / Binding of serum 37 to linear peptides of protein N of SARS-CoV Urbani / Binding of serum 6 to linear peptide (PEPSCAN-ELISA) / Binding of serum 1a to looped/cyclic peptides of protein N of SARS-CoV Urbani / Binding of serum 1b to looped/cyclic peptides of protein N of SARS-CoV Urbani / Binding of serum 2 to looped/cyclic peptides of protein N of SARS-CoV Urbani / Binding of serum 6 to looped/cyclic peptides of protein N of SARS-CoV Urbani / Binding of serum 37 to looped/cyclic peptides of protein N of SARS-CoV Urbani / Binding of serum 62 to looped/cyclic peptides of protein N of SARS-CoV Urbani / Binding of serum London to looped/cyclic peptides of protein N of SARS-CoV Urbani / Binding of serum SARS-green to looped/cyclic peptides of protein N of SARS-CoV Urbani: unit not given here
[2] = test system: recombinant human anti-SARS-CoV antibody 03-018; type: binding; set-up: Binding of antibody 03-018 to linear peptides of the N protein of SARS-CoV Urbani / Binding of antibody 03-018 to looped/cyclic peptides of the N protein of SARS-CoV Urbani: unit not given here
[3] = test system: rabbit serum obtained by immunizing a rabbit with the SARS-CoV strain Frankfurt 1; type: binding; set-up: Binding of a rabbit serum to linear peptides / Binding of a rabbit serum to looped peptides / Rabbit serum linear peptides / Rabbit serum looped peptides / Binding of a rabbit serum to linear peptides of protein N of SARS-CoV Urbani (Rabbit serum linear peptides) / Binding of a rabbit serum to looped/cyclic peptides of protein N of SARS-CoV Urbani (Rabbit serum looped peptides): unit not given here
[4] = test system: control sera (pooled serum of ten healthy LUMC hospital workers; commercial negative donor pooled serum from the Dutch bloodbank); type: binding, human

Row | Sequence | Binding of serum 1a to linear peptides of protein N of SARS-CoV Urbani [1] | Binding of serum 1a to looped/cyclic peptides of protein N of SARS-CoV Urbani [1] | Binding of serum 1b to linear peptides of protein N of SARS-CoV Urbani [1] | Binding of serum 1b to looped/cyclic peptides of protein N of SARS-CoV Urbani [1] | Binding of serum 2 to linear peptides of protein N of SARS-CoV Urbani [1] | Binding of serum 2 to looped/cyclic peptides of protein N of SARS-CoV Urbani [1] | Binding of serum 6 to linear peptides of protein N of SARS-CoV Urbani [1] | Binding of serum 6 to looped/cyclic peptides of protein N of SARS-CoV Urbani [1] | Binding of serum 37 to linear peptides of protein N of SARS-CoV Urbani [1] | Binding of serum 37 to looped/cyclic peptides of protein N of SARS-CoV Urbani [1] | Binding of serum 62 to linear peptides of protein N of SARS-CoV Urbani [1] | Binding of serum 62 to looped/cyclic peptides of protein N of SARS-CoV Urbani [1] | Binding of serum London to linear peptides of protein N of SARS-CoV Urbani [1] | Binding of serum London to looped/cyclic peptides of protein N of SARS-CoV Urbani [1] | Binding of serum SARS-green to linear peptides of protein N of SARS-CoV Urbani [1] | Binding of serum SARS-green to looped/cyclic peptides of protein N of SARS-CoV Urbani [1] | Binding of serum SARS-yellow to linear peptides of protein N of SARS-CoV Urbani [1] | Binding of serum SARS-yellow to looped/cyclic peptides of protein N of SARS-CoV Urbani [1] | Binding of antibody 03-018 to linear peptides of the N protein of SARS-CoV Urbani [2] | Binding of antibody 03-018 to looped/cyclic peptides of the N protein of SARS-CoV Urbani [2] | further results
1 | LLPAADMDDFSRQLQ | 0.3 | 0.3 | 0.2 | 0.1 | 0.3 | 0.4 | 0.3 | 0.1 | 0.8 | 0.5 | 0.6 | 0.2 | 0.6 | 0.3 | 0.4 | 0.2 | 0.6 | 0.3 | 0.1 | 0.2 | Binding of a rabbit serum to linear peptides of protein N of SARS-CoV Urbani (Rabbit serum linear peptides) [3]: 0.1; Binding of a rabbit serum to looped/cyclic peptides of protein N of SARS-CoV Urbani (Rabbit serum looped peptides) [3]: 0.2; Control Serum Blood-Bank Looped peptides [4]: 0.4; Control serum Blood-bank linear peptides [4]: 0.7; Control serum LUMC linear peptides [4]: 0.6; Control serum LUMC looped peptides [4]: 0.4
2 | PTEPKKDKKKKTDEA | 0.2 | 0.2 | 0.1 | 0.1 | 2.0 | 0.3 | 0.2 | 0.1 | 0.6 | 0.3 | 0.7 | 0.3 | 0.5 | 0.3 | 0.2 | 0.0 | 0.5 | 0.2 | 0.1 | 0.2 | Binding of a rabbit serum to linear peptides of protein N of SARS-CoV Urbani (Rabbit serum linear peptides) [3]: 0.1; Binding of a rabbit serum to looped/cyclic peptides of protein N of SARS-CoV Urbani (Rabbit serum looped peptides) [3]: 0.2; Control Serum Blood-Bank Looped peptides [4]: 0.4; Control serum Blood-bank linear peptides [4]: 0.6; Control serum LUMC linear peptides [4]: 0.6; Control serum LUMC looped peptides [4]: 0.3
3 | FPPTEPKKDKKKKTD | 0.2 | 0.2 | 0.1 | 0.1 | 1.3 | 0.2 | 0.2 | 0.1 | 0.6 | 0.4 | 0.7 | 0.2 | 0.6 | 0.2 | 0.1 | 0.0 | 0.6 | 0.1 | 0.1 | 0.2 | Binding of a rabbit serum to linear peptides of protein N of SARS-CoV Urbani (Rabbit serum linear peptides) [3]: 0.1; Binding of a rabbit serum to looped/cyclic peptides of protein N of SARS-CoV Urbani (Rabbit serum looped peptides) [3]: 0.1; Control Serum Blood-Bank Looped peptides [4]: 0.4; Control serum Blood-bank linear peptides [4]: 0.6; Control serum LUMC linear peptides [4]: 0.6; Control serum LUMC looped peptides [4]: 0.3
4 | DAYKTFPPTEPKKDK | 0.3 | 0.2 | 0.2 | 0.1 | 0.3 | 0.2 | 0.3 | 0.1 | 0.8 | 0.3 | 1.1 | 0.2 | 0.6 | 0.2 | 0.4 | 0.0 | 0.7 | 0.1 | 0.1 | 0.2 | Binding of a rabbit serum to linear peptides of protein N of SARS-CoV Urbani (Rabbit serum linear peptides) [3]: 0.1; Binding of a rabbit serum to looped/cyclic peptides of protein N of SARS-CoV Urbani (Rabbit serum looped peptides) [3]: 0.1; Control Serum Blood-Bank Looped peptides [4]: 0.2; Control serum Blood-bank linear peptides [4]: 0.8; Control serum LUMC linear peptides [4]: 0.6; Control serum LUMC looped peptides [4]: 0.2
